Data on 22 molecules can be found in US20080004253A1, “Thiazolopyrimidine modulators of TRPV1” (priority 2006, published 2008).

One assay deals with T1, rat TRPV1 (Rattus norvegicus, UniProt O35433).
T1 construct: expressed in transfected cells; host or cells: HEK293 (rTRPV1/HEK293), geneticin selection
Put plainly: Functional assay: block of capsaicin-induced Ca2+ influx, rat assay (rTRPV1/HEK293, FLIPR). The class given is cell-based. The following applies: rTRPV1/HEK293 cells, capsaicin challenge, Fluo-3 fluorescence; mean; > value = solubility limit in assay medium. As for the experimental part:
(§1) Functional assay: block of capsaicin-induced Ca^2+ influx
(§2) HEK293 cells were transfected with human TRPV1 cloned in pcDNA3.1zeo(+) using the Effectene non-liposomal lipid based transfection kit (Qiagen) (hTRPV1/HEK293). hTRPV1/HEK293 cells were routinely grown as monolayers under selection in zeocin (200 μg/mL; Invitrogen) in Dulbecco's Modified Eagle Medium (DMEM, Gibco BRL) supplemented with 10% fetal bovine serum, and penicillin/streptomycin (50 units/mL) in 5% CO2 at 37° C. Cells were passaged frequently, every 3-5 days, to avoid overgrowth, depletion of essential medium components, or acidic medium exposure. Cells were passaged using a brief wash in 0.05% trypsin with 1 mM EDTA, followed by dissociation in divalent-free phosphate-buffered saline (Hyclone #SH30028.02). […] The assay buffer was composed of 130 mM NaCl, 2 mM KCl, 2 mM MgCl2, 10 mM HEPES, 5 mM glucose, and either 2 mM or 20 μM CaCl2. On the day of the experiment, the culture medium was replaced with 2 mM calcium assay buffer using an automated plate washer (ELx405; Biotek, VT). […] After loading the cells, the dye solution was replaced with 50 μL/well of 20 μM calcium assay buffer using the ELx405 plate washer. Test compounds (50 μL/well) were added to the plate and incubated for 30 min. […] The IC50 values were determined. […] The contents of the wells were mixed 3 times (40 μL mix volume) immediately after the additions were made. Concentration-dependence of block was determined by exposing each well of cells in duplicate rows of a 96-well plate to a serial dilution of test compound. The concentration series usually started at 10 μM with a three-fold serial decrement in concentration. The magnitude of the capsaicin response was determined by measuring the change in fluo3 fluorescence before and 100 seconds after the addition of the agonist. Data were analyzed using a non-linear regression program (Origin; OriginLab, MA).
This assay was performed similarly to the human assay described above, but using HEK293 cells transfected with rat TRPV1 (rTRPV1/HEK293).
(§3) IC50 values shown are the average (mean) of the results obtained. […] Compounds were tested in either the free base or trifluoroacetic acid salt form.

In the next assay the target is T2, human TRPV1 (Homo sapiens, UniProt Q8NER1).
T2 construct: expressed in transfected cells; host or cells: HEK293 (hTRPV1/HEK293), zeocin selection
Put plainly: Functional assay: block of capsaicin-induced Ca2+ influx, human assay (hTRPV1/HEK293, FLIPR). Format: cell-based. The following applies: hTRPV1/HEK293 cells, 150 nM capsaicin challenge, Fluo-3 fluorescence; mean; > value = solubility limit in assay medium. The protocol: as §1, §2, §3

T2 sequence (Q8NER1 whole entry): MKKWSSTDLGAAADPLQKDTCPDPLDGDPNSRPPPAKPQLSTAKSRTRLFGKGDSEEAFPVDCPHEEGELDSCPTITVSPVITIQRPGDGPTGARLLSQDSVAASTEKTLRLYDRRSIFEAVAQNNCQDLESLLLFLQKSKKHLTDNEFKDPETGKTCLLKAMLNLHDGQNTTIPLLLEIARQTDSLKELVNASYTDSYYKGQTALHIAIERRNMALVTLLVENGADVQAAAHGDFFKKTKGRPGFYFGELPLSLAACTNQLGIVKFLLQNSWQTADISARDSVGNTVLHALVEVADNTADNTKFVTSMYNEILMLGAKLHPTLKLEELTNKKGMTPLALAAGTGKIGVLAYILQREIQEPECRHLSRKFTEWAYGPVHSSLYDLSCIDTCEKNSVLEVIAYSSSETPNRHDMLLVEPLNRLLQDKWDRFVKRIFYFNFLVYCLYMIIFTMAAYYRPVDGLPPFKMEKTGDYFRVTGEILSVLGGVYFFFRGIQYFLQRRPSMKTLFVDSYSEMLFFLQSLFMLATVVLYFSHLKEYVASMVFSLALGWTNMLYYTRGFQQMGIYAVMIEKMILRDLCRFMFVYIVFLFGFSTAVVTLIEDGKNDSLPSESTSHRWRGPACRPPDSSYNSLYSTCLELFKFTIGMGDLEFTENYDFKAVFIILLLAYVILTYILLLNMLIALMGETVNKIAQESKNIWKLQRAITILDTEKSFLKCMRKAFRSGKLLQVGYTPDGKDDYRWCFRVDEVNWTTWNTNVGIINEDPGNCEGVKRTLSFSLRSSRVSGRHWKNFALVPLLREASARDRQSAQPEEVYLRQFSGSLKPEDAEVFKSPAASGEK
T1 sequence (O35433 whole entry): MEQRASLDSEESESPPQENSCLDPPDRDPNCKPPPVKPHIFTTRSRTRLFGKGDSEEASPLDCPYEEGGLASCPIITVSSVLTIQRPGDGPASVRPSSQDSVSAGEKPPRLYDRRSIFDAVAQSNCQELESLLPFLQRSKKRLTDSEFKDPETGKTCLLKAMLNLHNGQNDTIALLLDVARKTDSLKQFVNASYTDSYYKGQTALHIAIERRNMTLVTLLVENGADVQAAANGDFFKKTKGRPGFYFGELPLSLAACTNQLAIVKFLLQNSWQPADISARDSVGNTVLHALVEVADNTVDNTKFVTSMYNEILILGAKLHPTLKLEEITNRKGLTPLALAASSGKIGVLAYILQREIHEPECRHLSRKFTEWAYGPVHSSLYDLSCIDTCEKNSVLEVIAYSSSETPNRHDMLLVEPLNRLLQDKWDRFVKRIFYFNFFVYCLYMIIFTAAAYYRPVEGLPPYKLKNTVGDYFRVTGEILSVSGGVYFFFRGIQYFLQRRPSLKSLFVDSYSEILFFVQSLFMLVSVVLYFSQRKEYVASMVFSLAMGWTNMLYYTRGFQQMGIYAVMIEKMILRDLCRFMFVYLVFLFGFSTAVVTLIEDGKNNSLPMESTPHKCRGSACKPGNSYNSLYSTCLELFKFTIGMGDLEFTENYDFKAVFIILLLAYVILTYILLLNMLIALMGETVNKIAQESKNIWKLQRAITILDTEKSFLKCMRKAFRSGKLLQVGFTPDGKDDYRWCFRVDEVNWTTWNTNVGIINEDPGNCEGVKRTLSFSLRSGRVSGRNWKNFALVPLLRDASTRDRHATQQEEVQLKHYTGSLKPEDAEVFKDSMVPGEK

What is called IC50 is the midpoint of a concentration-inhibition curve. Regarding `Cc1nc(NC2CCC(C(C)(C)C)CC2)c2nc(Nc3c(Cl)cccc3Cl)sc2n1` (mixture of isomers) [Example 8, N^7-(4-tert-Butyl-cyclohexyl)-N^2-(2,6-dichloro-phenyl)-5-methyl-thiazolo[5,4-d]pyrimidine-2,7-diamine], the IC50 at rat TRPV1 was determined as 70 nM; against human TRPV1 it was 1090 nM.

As for `Cc1nc(NC2CCC(C(C)(C)C)CC2)c2nc(Nc3c(C)cccc3C)sc2n1` (mixture of isomers) [Example 249, N^7-(4-tert-Butyl-cyclohexyl)-N^2-(2,6-dimethyl-phenyl)-5-methyl-thiazolo[5,4-d]pyrimidine-2,7-diamine], the values for the IC50 at rat TRPV1 and at human TRPV1 were 1010 nM and 4370 nM, respectively.

`CC(C)C1CCCN1c1nc(Nc2ccc(C(F)(F)F)cc2)c2nc(Nc3c(Cl)cccc3Cl)sc2n1` (racemic) [Example 89, (racemic)-N^2-(2,6-Dichloro-phenyl)-5-(2-isopropyl-pyrrolidin-1-yl)-N^7-(4-trifluoromethyl-phenyl)-thiazolo[5,4-d]pyrimidine-2,7-diamine]: the half-inhibitory concentration (IC50) was 2 nM against rat TRPV1 and 7 nM on human TRPV1.

For `CC1CCCN1c1nc(Nc2ccc(C(F)(F)F)cc2)c2nc(Nc3c(Cl)cccc3Cl)sc2n1` (racemic) [Example 105, (racemic)-N^2-(2,6-Dichloro-phenyl)-5-(2-methyl-pyrrolidin-1-yl)-N^7-(4-trifluoromethyl-phenyl)-thiazolo[5,4-d]pyrimidine-2,7-diamine], the half-maximal inhibitory concentration (IC50) against rat TRPV1 is 17 nM; against human TRPV1, 24 nM.

Regarding `CC1CCCN1c1nc(Nc2ccc(S(C)(=O)=O)cc2)c2nc(Nc3c(Cl)cccc3Cl)sc2n1` (racemic) [Example 117, (racemic)-N^2-(2,6-Dichloro-phenyl)-N^7-(4-methanesulfonyl-phenyl)-5-(2-methyl-pyrrolidin-1-yl)-thiazolo[5,4-d]pyrimidine-2,7-diamine], the results for the IC50 against rat TRPV1 and on human TRPV1 were 7 nM and 50 nM, respectively.

In the case of `CC(C)C1CCCN1c1nc(Nc2ccc(C(F)(F)F)c(Cl)c2)c2nc(Nc3c(Cl)cccc3Cl)sc2n1` (racemic) [Example 118, (racemic)-N^7-(3-Chloro-4-trifluoromethyl-phenyl)-N^2-(2,6-dichloro-phenyl)-5-(2-isopropyl-pyrrolidin-1-yl)-thiazolo[5,4-d]pyrimidine-2,7-diamine], the values for the IC50 against rat TRPV1 and at human TRPV1 were 18 nM and 56 nM, respectively.

As to `CC1CCCN1c1nc(Nc2ccc(C(F)(F)F)c(Cl)c2)c2nc(Nc3c(Cl)cccc3Cl)sc2n1` (racemic) [Example 130, (racemic)-N^7-(3-Chloro-4-trifluoromethyl-phenyl)-N^2-(2,6-dichloro-phenyl)-5-(2-methyl-pyrrolidin-1-yl)-thiazolo[5,4-d]pyrimidine-2,7-diamine], the results for the IC50 against rat TRPV1 and against human TRPV1 were 87 nM and 170 nM, respectively.

On to `CC1CCCCN1c1nc(Nc2ccc(C(F)(F)F)c(Cl)c2)c2nc(Nc3c(Cl)cccc3Cl)sc2n1` (racemic) [Example 136, (racemic)-N^7-(3-Chloro-4-trifluoromethyl-phenyl)-N^2-(2,6-dichloro-phenyl)-5-(2-methyl-piperidin-1-yl)-thiazolo[5,4-d]pyrimidine-2,7-diamine], for which the results for the half-maximal inhibitory concentration (IC50) at rat TRPV1 and at human TRPV1 were 25 nM and 205 nM, respectively.

Regarding `Cc1cccc(C)c1Nc1nc2c(Nc3ccc(C(C)O)cc3)ncnc2s1` (racemic) [Example 140, (racemic)-1-{4-[2-(2,6-Dimethyl-phenylamino)-thiazolo[5,4-d]pyrimidin-7-ylamino]-phenyl}-ethanol], the IC50 on rat TRPV1 is 185 nM; at human TRPV1, 324 nM.

Consider `Cc1nc(Nc2ccc([S+](C)[O-])cc2)c2nc(Nc3c(C)cccc3C)sc2n1` (racemic) [Example 143, (racemic)-N^2-(2,6-Dimethyl-phenyl)-N^7-(4-methanesulfinyl-phenyl)-5-methyl-thiazolo[5,4-d]pyrimidine-2,7-diamine], for which the values for the IC50 on rat TRPV1 and on human TRPV1 were 279 nM and 423 nM, respectively.

As to `OCC1CN(c2nc(Nc3ccc(C(F)(F)F)cc3)c3nc(Nc4c(Cl)cccc4Cl)sc3n2)CCO1` (racemic) [Example 146, (racemic)-{4-[2-(2,6-Dichloro-phenylamino)-7-(4-trifluoromethyl-phenylamino)-thiazolo[5,4-d]pyrimidin-5-yl]-morpholin-2-yl}-methanol], the IC50 is 319 nM on rat TRPV1 and 646 nM on human TRPV1.

Take `Cc1cccc(C)c1Nc1nc2c(Nc3ccc(OC4CCOC4)cc3)ncnc2s1` (racemic) [Example 154, (racemic)-N^2-(2,6-Dimethyl-phenyl)-N^7-[4-(tetrahydro-furan-3-yloxy)-phenyl]-thiazolo[5,4-d]pyrimidine-2,7-diamine]: the results for the IC50 on rat TRPV1 and against human TRPV1 were 1860 nM and 1520 nM, respectively.

`OCC1CN(c2nc(Nc3ccc(C(F)(F)F)c(Cl)c3)c3nc(Nc4c(Cl)cccc4Cl)sc3n2)CCO1` (racemic) [Example 155, (racemic)-{4-[7-(3-Chloro-4-trifluoromethyl-phenylamino)-2-(2,6-dichloro-phenylamino)-thiazolo[5,4-d]pyrimidin-5-yl]-morpholin-2-yl}-methanol]: the concentration for half-maximal inhibition (IC50) came to 414 nM on rat TRPV1 and 1540 nM on human TRPV1.

Take `CC(C)C1CCCN1c1nc(Nc2ccc(S(C)(=O)=O)cc2)c2nc(Nc3c(Cl)cccc3Cl)sc2n1` (racemic) [Example 177, (racemic)-N^2-(2,6-Dichloro-phenyl)-5-(2-isopropyl-pyrrolidin-1-yl)-N^7-(4-methanesulfonyl-phenyl)-thiazolo[5,4-d]pyrimidine-2,7-diamine]: the 50% inhibitory concentration (IC50) against rat TRPV1 was 3 nM; on human TRPV1, 21 nM.

Consider `CC1CCCCN1c1nc(Nc2ccc(S(C)(=O)=O)cc2)c2nc(Nc3c(Cl)cccc3Cl)sc2n1` (racemic) [Example 179, (racemic)-N^2-(2,6-Dichloro-phenyl)-N^7-(4-methanesulfonyl-phenyl)-5-(2-methyl-piperidin-1-yl)-thiazolo[5,4-d]pyrimidine-2,7-diamine], for which the concentration for half-maximal inhibition (IC50) came to 12 nM on rat TRPV1 and 159 nM against human TRPV1.

Turning to `CC(CO)Nc1nc(Nc2ccc(C(F)(F)F)cc2)c2nc(Nc3c(Cl)cccc3Cl)sc2n1` (racemic) [Example 186, (racemic)-2-[2-(2,6-Dichloro-phenylamino)-7-(4-trifluoromethyl-phenylamino)-thiazolo[5,4-d]pyrimidin-5-ylamino]-propan-1-ol], the half-inhibitory concentration (IC50) against rat TRPV1 was 666 nM; against human TRPV1 it was 642 nM.

For `CC1CCCCN1c1nc(Nc2ccc(C(F)(F)F)cc2)c2nc(Nc3c(Cl)cccc3Cl)sc2n1` (racemic) [Example 191, (racemic)-N^2-(2,6-Dichloro-phenyl)-5-(2-methyl-piperidin-1-yl)-N^7-(4-trifluoromethyl-phenyl)-thiazolo[5,4-d]pyrimidine-2,7-diamine], the results for the IC50 against rat TRPV1 and against human TRPV1 were 56 nM and 14 nM, respectively.

Regarding `Cc1cccc(C)c1Nc1nc2c(NC3CCC(C(C)(C)C)CC3)ncnc2s1` (single isomer, unassigned) [Example 248, N^7-(4-tert-Butyl-cyclohexyl)-N^2-(2,6-dimethyl-phenyl)-thiazolo[5,4-d]pyrimidine-2,7-diamine], the half-maximal inhibitory concentration (IC50) on rat TRPV1 was found to be 240 nM; on human TRPV1, 1100 nM.

For the molecule `FC(F)(F)c1ccc(Nc2ncnc3sc(Nc4c(Cl)cccc4Cl)nc23)cc1` [Example 1, N^2-(2,6-Dichloro-phenyl)-N^7-(4-trifluoromethyl-phenyl)-thiazolo[5,4-d]pyrimidine-2,7-diamine], the IC50 worked out at 3 nM against rat TRPV1 and 12 nM at human TRPV1.

In the case of `FC(F)(F)c1ccc(Nc2ncnc3sc(Nc4c(Cl)cccc4Cl)nc23)cn1` [Example 2, N^2-(2,6-Dichloro-phenyl)-N^7-(6-trifluoromethyl-pyridin-3-yl)-thiazolo[5,4-d]pyrimidine-2,7-diamine], the IC50 against rat TRPV1 was 4 nM; against human TRPV1, 14 nM.

In the case of `CC(C)(C)c1ccc(Nc2ncnc3sc(Nc4c(Cl)cccc4Cl)nc23)cc1` [Example 3, N^7-(4-tert-Butyl-phenyl)-N^2-(2,6-dichloro-phenyl)-thiazolo[5,4-d]pyrimidine-2,7-diamine], the IC50 on rat TRPV1 turned out to be 1 nM; at human TRPV1 it was 14 nM.

For the molecule `FC(F)(F)c1ccc(Nc2ncnc3sc(Nc4c(Cl)cccc4Cl)nc23)cc1Cl` [Example 4, N^7-(3-Chloro-4-trifluoromethyl-phenyl)-N^2-(2,6-dichloro-phenyl)-thiazolo[5,4-d]pyrimidine-2,7-diamine], the IC50 at rat TRPV1 was found to be 8 nM; on human TRPV1, 15 nM.
